# Assay results published in patent publication US7528128B2, “Pyrrolo[2,1-C][1,4]benzodiazepine hybrids and a process for the preparation thereof” (Council of Scientific & Industrial Research, priority 2006, dated 2009).
# Tests used:
# [1] = system: sixty human tumour cells; test: NCI in vitro anticancer screen, SRB protein assay, mean graph midpoints; format: cell-based; details: human tumour cell lines, 48 h continuous drug exposure
# Method: Biological Activity: some of in vitro biological activity studies were carried out at the National Cancer Institute, Maryland, USA.
# 5e was evaluated for in vitro anticancer activity against sixty human tumour cells derived from nine cancer types (leukemia, non-small-cell lung, colon, CNS, melanoma, ovarian, prostate, and breast cancer) as shown in (Table 1 and 2). For the compound, dose response curves for each cell line were measured at a minimum of five concentrations at 10 fold dilutions. A protocol of 48 h continuous drug exposure was used and a sulforhodamine B (SRB) protein assay was used to estimate cell viability or growth. The concentration causing 50% cell growth inhibition (GI50), total cell growth inhibition (TGI 0% growth) and 50% cell death (LC50, −50% growth) compared with the control was calculated.
# [2] = system: SiHa (cervix); test: In vitro cytotoxicity, 48 h continuous drug exposure; format: cell-based, human; details: for Activity status in terms of IC50 value: Cervix; for cell growth by %: relative to untreated control cells
# Method: (§1) In vitro evaluation of cytotoxic activity. The compound 5a, 5b, 5g, 5i and 5j were evaluated for in vitro anticancer activity against nine human tumour cells derived from six cancer types (colon, prostate, oral, lung, cervix and breast cancer) as shown in Table 3. […] Compounds 5a, 5b, 5g, 5i and 5j have been evaluated for their in vitro cytotoxicity in selected human cancer cell lines of colon (Colo205), lung (Hop-62), cervix (SiHa), prostate (DU145, PC3), oral (DWD, HT1080), and breast (MCF7, Zr-75-1) origin. A protocol of 48 h continuous drug exposure has been used and an […] has been used to estimate cell viability or growth. […] Compound 5a, Colo205 cell growth by 83%, DU145 cell growth by 84%, DWD cell growth by 70%, Hop62 cell growth by 87%, HT1080 cell growth by 80%, MCF7 cell growth by 73%, PC3 cell growth by 91%, SiHa cell growth by 67%, Zr-75-1 cell growth by 76%. Compound 5b, Colo205 cell growth by 20%, DU145 cell growth by 64%, DWD cell growth by 70%, Hop62 cell growth by 78%, HT1080 cell growth by 72%, MCF7 cell growth by 69%, PC3 cell growth by 72%, SiHa cell growth by 20%, Zr-75-1 cell growth by 20%. Compound 5g, Colo205 cell growth by 50%, DU145 cell growth by 20%, DWD cell growth by 94%, Hop62 cell growth by 84%, HT1080 cell growth by 94%, MCF7 cell growth by 71%, PC3 cell growth by 86%, SiHa cell growth by 74%, Zr-75-1 cell growth by 72%. Compound 5i, DU145 cell growth by 42%, Hop62 cell growth by 60%, HT1080 cell growth by 70%, Compound 5j, Colo205 cell growth by 44%, DU145 cell growth by 57%, DWD cell growth by 65%, Hop62 cell growth by 53%, HT1080 cell growth by 71%, PC3 cell growth by 81%, SiHa cell growth by 77%.
# [3] = system: Colo205 (colon); test: as above; format: cell-based, human; details: for Activity status in terms of IC50 value: Colo205, Colon; for cell growth by %: Colo205, relative to untreated control cells
# Method: as §1
# [4] = system: MCF7 (breast); test: as above; format: cell-based, human; details: for Activity status in terms of IC50 value: MCF7, Breast; for cell growth by %: MCF7, relative to untreated control cells
# Method: as §1
# [5] = system: Zr-75-1 (breast); test: as above; format: cell-based, human; details: for Activity status in terms of IC50 value: Zr-75-1, Breast; for cell growth by %: Zr-75-1, relative to untreated control cells
# Method: as §1
# [6] = system: HT1080 (oral); test: as above; format: cell-based, human; details: for Activity status in terms of IC50 value: HT1080, Oral; for cell growth by %: HT1080, relative to untreated control cells
# Method: as §1
# [7] = system: DWD (oral); test: as above; format: cell-based, human; details: for Activity status in terms of IC50 value: Oral; for cell growth by %: relative to untreated control cells
# Method: as §1
# [8] = system: Hop62 (lung); test: as above; format: cell-based, human; details: for Activity status in terms of IC50 value: Hop62, Lung; for cell growth by %: Hop62, relative to untreated control cells
# Method: as §1
# [9] = system: DU145 (prostate); test: as above; format: cell-based, human; details: for Activity status in terms of IC50 value: DU145, Prostate; for cell growth by %: DU145, relative to untreated control cells
# Method: as §1
# [10] = system: PC3 (prostate); test: as above; format: cell-based, human; details: for Activity status in terms of IC50 value: PC3, Prostate; for cell growth by %: PC3, relative to untreated control cells
# Method: as §1
# [11] = system: selected human cancer cell lines; test: In vitro cytotoxicity in selected human cancer cell lines (overall statements); format: cell-based; details: Table 3
# Method: as §1
# [12] = system: duplex-form calf thymus DNA (CT-DNA); test: Thermal denaturation studies with CT-DNA; format: binding; details: for ΔTm after incubation at 37° C. for 0 h / ΔTm after incubation at 37° C. for 18 h / ΔTm after incubation at 37° C. for 36 h: [PBD]:[DNA] 1:5, CT-DNA 100 μM, ligand 20 μM; for ΔTm after incubation at 37° C. for 0 h: pH 7.00, 0 h; for ΔTm after incubation at 37° C. for 18 h: pH 7.00, 18 h; for ΔTm after incubation at 37° C. for 36 h: pH 7.00, 36 h; for course of ΔTm over 0 hr, 18 hr and 36 hr (in words): incubation at 37° C.
# Method: Compounds were subjected to thermal denaturation studies with duplex-form calf thymus DNA (CT-DNA) using an adaptation of a reported procedure. Working solutions in aqueous buffer (10 mM NaH2PO4/Na2HPO4, 1 mM Na2EDTA, pH 7.00+0.01) containing CT-DNA (100 μm in phosphate) and the PBD (20 μm) were prepared by addition of concentrated PBD solutions in DMSO to obtain a fixed [PBD]/[DNA] molar ratio of 1:5. The DNA-PBD solutions were incubated at 37° C. for 0, 18, and 36 h prior to analysis. Samples were monitored at 260 nm using a Beckman DU-7400 spectrophotometer fitted with high performance temperature controller, and heating was applied at 1° C. min−1 in the 40-90° C. range. DNA helix coil transition temperatures (Tm) were obtained from the maxima in the (dA260)/dT derivative plots. Results are given as the mean ±standard deviation from three determinations and are corrected for the effects of DMSO co-solvent using a linear correction term. Drug-induced alterations in DNA melting behaviour are given by: ΔTm=Tm(DNA+PBD)−Tm (DNA alone), where the Tm value for the PBD-free CT-DNA is 69.0±0.01.
Compound,Activity status in terms of IC50 value [2],cell growth by % [2],Activity status in terms of IC50 value [3],cell growth by % [3],Activity status in terms of IC50 value [4],cell growth by % [4],Activity status in terms of IC50 value [5],cell growth by % [5],Activity status in terms of IC50 value [6],cell growth by % [6],Activity status in terms of IC50 value [7],cell growth by % [7],Activity status in terms of IC50 value [8],cell growth by % [8],Activity status in terms of IC50 value [9],cell growth by % [9],Activity status in terms of IC50 value [10],cell growth by % [10],cytotoxicity against some cancer cell lines (in words) [11],ΔTm after incubation at 37° C. for 0 h [12],other results
"COc1cc2c(cc1OCCCCCOc1c(C)cc(Cl)cc1C(=O)c1ccccc1)N=C[C@@H]1CCCN1C2=O [Compound 5f, 7-methoxy-8-{3-[2-benzoyl-(4-chloro-6-methylphenyloxy)pentoxy]}-(11aS)-1,2,3,11a-tetrahydro-5H-pyrrolo[2,1-c][1,4]benzodiazepine-5-one]",–,–,–,–,–,–,–,–,–,–,–,–,–,–,–,–,–,–,–,–,Log10GI50 mean graph midpoint (MG_MID) [1]: −6.47; Log10LC50 mean graph midpoint (MG_MID) [1]: −4.89; Log10TGI mean graph midpoint (MG_MID) [1]: −5.24
"7-methoxy-8-{3-[2-benzoyl-(4-chlorophenyloxy)propoxy]}-(11aS)-1,2,3,11a-tetrahydro-5H-pyrrolo[2,1-c][1,4]benzodiazepine-5-one [Compound 5a]",43 µg/mL,67%,17 µg/mL,83%,27 µg/mL,73%,24 µg/mL,76%,20 µg/mL,80%,30 µg/mL,70%,13 µg/mL,87%,16 µg/mL,84%,9 µg/mL,91%,promising cytotoxicity,1.4 °C,"ΔTm after incubation at 37° C. for 18 h [12]: 1.7 °C; ΔTm after incubation at 37° C. for 36 h [12]: 2.2 °C; course of ΔTm over 0 hr, 18 hr and 36 hr (in words) [12]: gradually increased"
"COc1cc2c(cc1OCCCCOc1ccc(Cl)cc1C(=O)c1ccccc1)N=C[C@@H]1CCCN1C2=O [Compound 5b, 7-methoxy-8-{4-[2-benzoyl-(4-chlorophenyloxy)butoxy]}-(11aS)-1,2,3,11a-tetrahydro-5H-pyrrolo[2,1-c][1,4]benzodiazepine-5-one]",>80 µg/mL,20%,32 µg/mL,20%,31 µg/mL,69%,>80 µg/mL,20%,28 µg/mL,72%,30 µg/mL,70%,22 µg/mL,78%,35 µg/mL,64%,28 µg/mL,72%,promising cytotoxicity,1.5 °C,"ΔTm after incubation at 37° C. for 18 h [12]: 2.1 °C; ΔTm after incubation at 37° C. for 36 h [12]: 2.6 °C; course of ΔTm over 0 hr, 18 hr and 36 hr (in words) [12]: gradually increased"
